Data: publication PMC7327383, “The affinity and selectivity of α‐adrenoceptor antagonists, antidepressants, and antipsychotics for the human α1A, α1B, and α1D‐adrenoceptors” (Pharmacology Research & Perspectives, 2020)
pKd: −log10 of the molar value. Where two headings read alike, the source gives them in different places. Values belong to the compound of their own block, whether it stands above or below them.

Key:
human α1A-adrenoceptor = molecular target: T1, human α1A-adrenoceptor (Homo sapiens, UniProt P35348); assay: [3H]prazosin whole-cell competition binding, CHO-α1A cells
T1 construct: CHO cells stably expressing either the full‐length human α1A, α1B, or α1D‐adrenoceptor
T1 sequence (P35348 1-466): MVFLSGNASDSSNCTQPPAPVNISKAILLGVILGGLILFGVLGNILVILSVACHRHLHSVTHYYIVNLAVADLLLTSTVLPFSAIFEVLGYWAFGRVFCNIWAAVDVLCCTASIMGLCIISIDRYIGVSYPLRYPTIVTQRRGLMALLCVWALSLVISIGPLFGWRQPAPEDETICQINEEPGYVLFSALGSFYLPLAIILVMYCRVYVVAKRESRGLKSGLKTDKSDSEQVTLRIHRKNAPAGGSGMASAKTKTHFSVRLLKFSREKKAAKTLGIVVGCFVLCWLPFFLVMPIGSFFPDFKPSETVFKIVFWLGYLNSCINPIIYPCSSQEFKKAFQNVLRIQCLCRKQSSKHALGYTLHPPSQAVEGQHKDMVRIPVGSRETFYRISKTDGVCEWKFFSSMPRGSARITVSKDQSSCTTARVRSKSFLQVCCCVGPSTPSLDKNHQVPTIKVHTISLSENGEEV

human α1B-adrenoceptor = molecular target: T2, human α1B-adrenoceptor (Homo sapiens, UniProt P35368); assay: [3H]prazosin whole-cell competition binding, CHO-α1B cells
T2 construct: CHO cells stably expressing either the full‐length human α1A, α1B, or α1D‐adrenoceptor
T2 sequence (P35368 1-520): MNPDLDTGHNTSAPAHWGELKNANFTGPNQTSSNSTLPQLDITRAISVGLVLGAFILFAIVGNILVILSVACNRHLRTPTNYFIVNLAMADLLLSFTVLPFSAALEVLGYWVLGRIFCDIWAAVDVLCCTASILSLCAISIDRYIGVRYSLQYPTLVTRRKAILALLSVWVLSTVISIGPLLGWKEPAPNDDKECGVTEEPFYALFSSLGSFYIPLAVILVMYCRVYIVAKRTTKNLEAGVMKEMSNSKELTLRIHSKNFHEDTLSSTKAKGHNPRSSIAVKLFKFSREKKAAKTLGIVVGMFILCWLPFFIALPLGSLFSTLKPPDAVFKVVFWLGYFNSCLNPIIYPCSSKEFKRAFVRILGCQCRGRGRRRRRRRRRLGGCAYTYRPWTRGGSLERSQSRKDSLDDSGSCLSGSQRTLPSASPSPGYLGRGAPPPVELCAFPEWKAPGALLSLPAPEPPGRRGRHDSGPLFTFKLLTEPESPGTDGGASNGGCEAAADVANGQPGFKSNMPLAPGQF

[1] = molecular target: T3, full-length human α1D-adrenoceptor (Homo sapiens, UniProt P25100); assay: [3H]prazosin whole-cell competition binding, CHO-α1D cells
T3 sequence (P25100 1-572): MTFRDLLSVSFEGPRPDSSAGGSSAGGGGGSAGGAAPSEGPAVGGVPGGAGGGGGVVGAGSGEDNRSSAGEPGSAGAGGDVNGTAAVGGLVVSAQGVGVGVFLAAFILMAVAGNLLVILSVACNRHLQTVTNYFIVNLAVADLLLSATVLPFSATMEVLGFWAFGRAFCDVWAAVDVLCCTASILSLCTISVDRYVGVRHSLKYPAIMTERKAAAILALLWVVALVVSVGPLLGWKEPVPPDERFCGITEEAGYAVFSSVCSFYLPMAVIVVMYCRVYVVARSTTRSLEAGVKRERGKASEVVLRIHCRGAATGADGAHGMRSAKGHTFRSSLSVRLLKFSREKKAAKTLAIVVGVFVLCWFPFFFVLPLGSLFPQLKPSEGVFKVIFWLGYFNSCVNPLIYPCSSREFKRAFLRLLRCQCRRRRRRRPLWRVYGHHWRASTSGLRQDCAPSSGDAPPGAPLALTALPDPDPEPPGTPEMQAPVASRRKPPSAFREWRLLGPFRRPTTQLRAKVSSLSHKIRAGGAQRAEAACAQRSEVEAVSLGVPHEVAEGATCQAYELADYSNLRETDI

[2] = ratio of KD values, printed under α1A = higher α1A affinity, 1.0 under vs = none
[3] = ratio, 1 = no selectivity for a subtype over another
[4] = ratio of KD values, higher α1D affinity (site 1 KD)
[5] = single-component inhibition curve, given as log KD (negative), mean ± SE mean

Selectivity ratio α1A vs α1D (human α1A-adrenoceptor; ratio of KD values, higher α1A affinity, 1.0 under vs = none): 468 fold
Selectivity ratio α1A vs α1B (human α1A-adrenoceptor; [2]): 1288 fold
Kd (human α1A-adrenoceptor; single-component inhibition curve, given as log KD (negative), mean ± SE mean, read-out: Log KD α1A (converted)): 0.245 nM
pKd (human α1A-adrenoceptor; subtype not given, ligands with α1A selectivity (Table 1: α1A), read-out: affinity): > 9.60
selectivity α1B vs α1D (human α1B-adrenoceptor; [3]): 2.8
Kd (human α1B-adrenoceptor; single-component inhibition curve, given as log KD (negative), mean ± SE mean, read-out: Log KD α1B (converted)): 316 nM
pKd ([1]; Log KD α1D, single-component inhibition curve, given as log KD (negative), mean ± SE mean): 6.94
Selectivity ratio α1B vs α1D [1, 4]: 2.8 fold
Structure (SMILES): C[C@H](Cc1cc2c(c(C(N)=O)c1)N(CCCO)CC2)NCCOc1ccccc1OCC(F)(F)F [Silodosin]

Structure (SMILES): CN1CC[C@]2(CCN3CCc4c(oc5ccccc45)[C@@H]3C2)N(C)C1=O.Cl [MK‐912]
Selectivity ratio α1A vs α1B (human α1A-adrenoceptor; [2]): 20 fold
Log KD α1A (human α1A-adrenoceptor; [5]): −6.76 ± 0.03
Log KD α1B (human α1B-adrenoceptor; [5]): −5.46 ± 0.05
Log KD α1D site 1 ([1]; high-affinity component of two-component curve, control, used for selectivity): −7.30 ± 0.16
Log KD α1D site 2 ([1]; low-affinity component of two-component curve, control): −5.50 ± 0.25
% site 1 α1D ([1]; percentage of inhibition through first component, control): 61.2 ± 5.5% site 1
Selectivity ratio α1A vs α1D [1, 4]: 3.5 fold
Selectivity ratio α1B vs α1D [1, 4]: 69 fold

Structure (SMILES): COc1ccc(C(CN(C)C)C2(O)CCCCC2)cc1 (stereo not shown) [Venlafaxime]
Log KD α1A (apparent) (human α1A-adrenoceptor; app: top concentration inhibited most but not all specific binding, curve extrapolated): −3.69 ± 0.02^app
Selectivity ratio α1A vs α1B (human α1A-adrenoceptor; [2]): >4.9 fold
selectivity α1A vs 1D (human α1A-adrenoceptor; [3]): 4.9
Log KD α1B: result in words (human α1B-adrenoceptor; no inhibition of [3H]prazosin binding at maximum concentration possible): No binding to 1 mmol/L
selectivity α1B vs α1D (human α1B-adrenoceptor; [3]): >24
binding at α1B (human α1B-adrenoceptor; result in words in the Log KD α1B column): No binding to 1mM
binding at α1B (result in words) (human α1B-adrenoceptor; up to the maximum concentration): No binding to 1mM
Selectivity ratio α1A vs α1D [1, 4]: 4.9 fold
Selectivity ratio α1B vs α1D [1, 4]: >24 fold
Log KD α1D [1, 5]: −4.38 ± 0.16

Structure (SMILES): CN1CCc2cccc(Cl)c2CC1 [SKF86466]
pKd (human α1A-adrenoceptor): 6.06
Selectivity ratio α1A vs α1B (human α1A-adrenoceptor): 13 fold
Selectivity ratio α1A vs α1D (human α1A-adrenoceptor): 7.9 fold
selectivity α1A vs α1B (human α1A-adrenoceptor): 13.5
pKd (human α1B-adrenoceptor): 4.93
selectivity α1B vs α1D (human α1B-adrenoceptor): 1.7
pKd [1]: 5.16
Selectivity ratio α1B vs α1D [1]: 1.7 fold
